ChEMBL document CHEMBL4130426, “Namalides B and C and Spumigins K-N from the Cultured Freshwater Cyanobacterium Sphaerospermopsis torques-reginae” (J Nat Prod, 2017)
Activity calls are given as the source filed them. The rule behind the calls is not given here.

Legend:
Prothrombin [1] = target: T1, Prothrombin (Homo sapiens, UniProt P00734); assay: Inhibition of thrombin (unknown origin) using N-benzoyl-Phe-Val-Arg-p-nitroanilide hydrochloride as substrate pretreated for 5 mins followed by substrate addition measured after 30 mins by colorimetric method
Carboxypeptidase A1 = target: T2, Carboxypeptidase A1 (Bos taurus, UniProt P00730); assay: Inhibition of bovine pancreas carboxypeptidase A using N-4-(methoxyphenylazoformyl)-Phe-OH as substrate measured after 5 mins by colorimetric method
T2 sequence (P00730 whole entry): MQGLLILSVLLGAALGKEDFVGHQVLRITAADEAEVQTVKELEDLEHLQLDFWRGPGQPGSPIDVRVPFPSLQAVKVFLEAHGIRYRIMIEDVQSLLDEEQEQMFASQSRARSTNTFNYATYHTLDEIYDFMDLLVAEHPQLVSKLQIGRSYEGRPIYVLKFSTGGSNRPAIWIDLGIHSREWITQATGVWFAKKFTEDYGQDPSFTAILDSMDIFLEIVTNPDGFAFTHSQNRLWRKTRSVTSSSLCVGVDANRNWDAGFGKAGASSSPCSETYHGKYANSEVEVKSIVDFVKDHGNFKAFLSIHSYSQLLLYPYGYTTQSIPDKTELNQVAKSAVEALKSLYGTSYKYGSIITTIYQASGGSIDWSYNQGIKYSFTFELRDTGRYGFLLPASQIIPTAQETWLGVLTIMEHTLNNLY

[2] = target: T3, Chymotrypsin-C (Homo sapiens) (UniProt Q99895); assay: Inhibition of human pancreas chymotrypsin C up to 0.78 mM using N-succinyl-Ala-Ala-Pro-Phe p-nitroanilide as substrate pretreated for 5 mins followed by substrate addition measured after 30 mins by colorimetric method
T3 sequence (whole entry): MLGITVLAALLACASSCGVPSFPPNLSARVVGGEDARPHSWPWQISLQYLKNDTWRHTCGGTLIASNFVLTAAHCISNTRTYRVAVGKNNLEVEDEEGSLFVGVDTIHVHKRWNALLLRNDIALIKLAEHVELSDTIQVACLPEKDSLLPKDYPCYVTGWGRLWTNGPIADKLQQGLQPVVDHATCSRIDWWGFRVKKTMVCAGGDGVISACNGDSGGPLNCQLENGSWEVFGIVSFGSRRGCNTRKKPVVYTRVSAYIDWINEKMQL

Prothrombin [3] = target: T1, Prothrombin; assay: Inhibition of thrombin (unknown origin) up to 150 to 350 uM using N-benzoyl-Phe-Val-Arg-p-nitroanilide hydrochloride as substrate pretreated for 5 mins followed by substrate addition measured after 30 mins by colorimetric method

N=C(N)NCCC[C@H](CO)NC(=O)[C@@H]1CCCN1C(=O)[C@@H](Cc1ccc(O)cc1)NC(=O)C(O)CCc1ccc(O)cc1 (stereo partly drawn)
IC50 (Prothrombin [1]): 250 µM

CC[C@@H](C)[C@H](NC(=O)N[C@@H]1CCCCNC(=O)[C@H](CCc2ccc(O)cc2)NC(=O)[C@H]([C@H](C)CC)NC1=O)C(=O)O
IC50 (Carboxypeptidase A1): 0.75 µM | inhibition [2]: inactive

CC1C[C@@H](C(=O)N[C@H](CO)CCCNC(=N)N)N(C(=O)[C@@H](Cc2ccc(O)cc2)NC(=O)C(O)CCc2ccc(O)cc2)C1 (stereo partly drawn)
inhibition (Prothrombin [3]): inactive

CC1C[C@@H](C(=O)N[C@@H](CO)CCCNC(=N)N)N(C(=O)[C@@H](Cc2ccc(O)cc2)NC(=O)C(O)CCc2ccc(O)cc2)C1 (stereo partly drawn)
inhibition (Prothrombin [3]): inactive

N=C(N)NCCC[C@@H](CO)NC(=O)[C@@H]1CCCN1C(=O)[C@@H](Cc1ccc(O)cc1)NC(=O)C(O)CCc1ccc(O)cc1 (stereo partly drawn)
IC50 (Prothrombin [1]): 250 µM

CC[C@@H](C)[C@H](NC(=O)N[C@@H]1CCCCNC(=O)[C@H](CCc2ccc(O)cc2)NC(=O)[C@H](C(C)C)NC1=O)C(=O)O
IC50 (Carboxypeptidase A1): 2 µM | inhibition [2]: inactive
